Measurements as given in ChEMBL document CHEMBL1201862, “PubChem BioAssay data set” (2004).
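Assay format: 96-well plates, 48-hour exposure. Here, GI50 denotes the concentration required for 50% inhibition of growth.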 Calls of active or inactive are those of the source. Cut-off read from the data, not from the text of the source: active = GI50 up to about 1.1 µM and inactive = higher.

How the values were obtained:
Experiment in all cases: NCI anticancer screen, dose series, 48 h
ACHN = tested on: ACHN
RXF 393 = tested on: RXF 393
SK-MEL-2 = tested on: SK-MEL-2
HT-29 = tested on: HT-29
UACC-257 = tested on: UACC-257
NCI-H522 = tested on: NCI-H522
OVCAR-5 = tested on: OVCAR-5
Malme-3M = tested on: Malme-3M
HCT-116 = tested on: HCT-116
MCF7 = tested on: MCF7
U-251 = tested on: U-251
MOLT-4 = tested on: MOLT-4
MDA-MB-435 = tested on: MDA-MB-435
COLO 205 = tested on: COLO 205
EKVX = tested on: EKVX
SK-MEL-28 = tested on: SK-MEL-28
IGROV-1 = tested on: IGROV-1
HL-60 = tested on: HL-60
SK-OV-3 = tested on: SK-OV-3
NCI-H226 = tested on: NCI-H226

Row | SMILES | GI50 (ACHN) | GI50 (RXF 393) | GI50 (SK-MEL-2) | GI50 (HT-29) | GI50 (UACC-257) | GI50 (NCI-H522) | GI50 (OVCAR-5) | GI50 (Malme-3M) | GI50 (HCT-116) | GI50 (MCF7) | GI50 (U-251) | GI50 (MOLT-4) | GI50 (MDA-MB-435) | GI50 (COLO 205) | GI50 (EKVX) | GI50 (SK-MEL-28) | GI50 (IGROV-1) | GI50 (HL-60) | GI50 (SK-OV-3) | GI50 (NCI-H226)
1 | CC(C)=C1C2CC3(C)CCC2(C)CCC13.CC1=CCC2C3(C)CCC2(C(C)C)C1C3 (stereo not drawn) | 20.3 µM (inactive) | 17.8 µM (inactive) | 17.5 µM (inactive) | 16.2 µM (inactive) | 27.2 µM (inactive) | 20.8 µM (inactive) | 18.9 µM (inactive) | 43.8 µM (inactive) | 31.6 µM (inactive) | 19 µM (inactive) | 23.4 µM (inactive) | 31.9 µM (inactive) | 28.9 µM (inactive) | 26.7 µM (inactive) | 21.6 µM (inactive) | 34.2 µM (inactive) | 16.5 µM (inactive) | 24.2 µM (inactive) | > 100 µM (inactive) | 
2 | Nc1cc2[nH]c(=O)c3cc(Cl)ccc3c2cc1Cl | 6.59 µM (inactive) |  | 25 µM (inactive) | 22.3 µM (inactive) | 21.1 µM (inactive) | 13.4 µM (inactive) | 15.6 µM (inactive) | 14.7 µM (inactive) | 5.15 µM (inactive) | 0.149 µM (active) | 10.9 µM (inactive) | 4.11 µM (inactive) | 14.3 µM (inactive) | 43.9 µM (inactive) | 2.52 µM (inactive) | 60.4 µM (inactive) | 4.07 µM (inactive) | 32.4 µM (inactive) | 3.98 µM (inactive) | 0.0649 µM (active)
3 | CC(=O)OC/C=C\Cn1ncc(=O)[nH]c1=O | 21.6 µM (inactive) | 17.8 µM (inactive) | 18.1 µM (inactive) | 14.2 µM (inactive) |  | 16.1 µM (inactive) | 17.9 µM (inactive) | 16.5 µM (inactive) |  | 13 µM (inactive) | 15 µM (inactive) | 19.2 µM (inactive) | 18.2 µM (inactive) | 16 µM (inactive) | 20.3 µM (inactive) | 21.4 µM (inactive) | 17.9 µM (inactive) | 11.3 µM (inactive) |  | 18 µM (inactive)
4 | CN(N)c1nc(N)c(C#N)c(C#N)c1C#N | > 10 µM (inactive) |  |  | > 10 µM (inactive) | > 10 µM (inactive) | > 10 µM (inactive) | > 10 µM (inactive) | > 10 µM (inactive) | > 10 µM (inactive) | > 10 µM (inactive) | > 10 µM (inactive) | > 10 µM (inactive) | > 10 µM (inactive) | > 10 µM (inactive) |  | > 10 µM (inactive) | > 10 µM (inactive) | > 10 µM (inactive) | > 10 µM (inactive) | 
5 | COc1ccc(N[S+]([O-])c2ccc(-c3ccccc3)cc2)cc1 (stereo not drawn) | > 100 µM (inactive) | > 100 µM (inactive) |  | > 100 µM (inactive) | > 100 µM (inactive) | > 100 µM (inactive) | > 100 µM (inactive) | > 100 µM (inactive) | > 100 µM (inactive) | > 100 µM (inactive) | 35.1 µM (inactive) | > 100 µM (inactive) | > 100 µM (inactive) | > 100 µM (inactive) | > 100 µM (inactive) | 91.4 µM (inactive) | 8.55 µM (inactive) | > 100 µM (inactive) |  | > 100 µM (inactive)
6 | Nc1cc(S(=O)(=O)O)cc2cc(S(=O)(=O)O)c(/N=N/c3ccc(-c4ccc(/N=N/c5c(S(=O)(=O)O)cc6cc(S(=O)(=O)O)cc(N)c6c5O)cc4)cc3)c(O)c12 |  | > 69.5 µM (inactive) | > 100 µM (inactive) | > 100 µM (inactive) | > 100 µM (inactive) | > 100 µM (inactive) | > 100 µM (inactive) | > 100 µM (inactive) | > 100 µM (inactive) | > 100 µM (inactive) | > 100 µM (inactive) | > 100 µM (inactive) |  | > 100 µM (inactive) | > 100 µM (inactive) | > 100 µM (inactive) | > 100 µM (inactive) | > 100 µM (inactive) | > 100 µM (inactive) | > 100 µM (inactive)
7 | CC1(C)[C@@H]2C[C@H]1C(Cc1ccccc1C[C@H]1c3cc(-c4ccccn4)ncc3[C@H]3C[C@@H]1C3(C)C)c1cc(-c3ccccn3)ncc12 (stereo partly drawn) | 0.204 µM (active) | 0.714 µM (active) |  | 0.371 µM (active) | 0.507 µM (active) | 0.448 µM (active) | 0.791 µM (active) | 0.678 µM (active) | 0.342 µM (active) | 0.362 µM (active) | 0.324 µM (active) | 0.236 µM (active) | 0.416 µM (active) | 0.399 µM (active) | 0.461 µM (active) | 0.527 µM (active) | 0.274 µM (active) | 0.232 µM (active) | 0.518 µM (active) | 
8 | CCN1C(=O)C(=Cc2ccc(-c3ccccc3)cc2)C(=O)N(CC)C1=S | > 100 µM (inactive) | > 100 µM (inactive) | > 100 µM (inactive) | > 100 µM (inactive) | > 100 µM (inactive) |  | > 100 µM (inactive) | > 100 µM (inactive) | 97.3 µM (inactive) | > 100 µM (inactive) | 75.2 µM (inactive) | 30.3 µM (inactive) | > 100 µM (inactive) | > 100 µM (inactive) | > 100 µM (inactive) | > 100 µM (inactive) | > 100 µM (inactive) | 35.5 µM (inactive) | > 100 µM (inactive) | > 100 µM (inactive)
9 | CSCC(CO)NC(=O)/C=C/c1c(C)[nH]c(=O)[nH]c1=O (stereo not drawn) |  | > 875 µM (inactive) | 597 µM (inactive) | > 826 µM (inactive) | 820 µM (inactive) | 45.8 µM (inactive) | 352 µM (inactive) | 307 µM (inactive) | 507 µM (inactive) | 40.3 µM (inactive) | 462 µM (inactive) | 232 µM (inactive) |  | 68.5 µM (inactive) | 454 µM (inactive) | > 875 µM (inactive) | > 875 µM (inactive) | 197 µM (inactive) | 641 µM (inactive) | 752 µM (inactive)
10 | COc1cc2c(cc1OC)C(=O)/C(=C/c1cc(C)cc(C)c1)C2 | 12.9 µM (inactive) | 0.0736 µM (active) | 0.184 µM (active) | 0.0385 µM (active) | 0.561 µM (active) | 0.0451 µM (active) | 1.09 µM (active) |  | 0.0445 µM (active) | 0.385 µM (active) | 0.122 µM (active) | 0.504 µM (active) | < 0.0146 µM (active) | 0.0735 µM (active) | 1.29 µM (inactive) | 40.7 µM (inactive) | 0.0908 µM (active) | < 0.0244 µM (active) | 0.308 µM (active) | 0.172 µM (active)
11 | CC1(C)CC[C@]2(C)CC[C@]3(C)C(=CC[C@@H]4[C@@]5(C)CCC(=O)C(C)(C)[C@@H]5[C@H](O)C[C@]43C)[C@@H]2C1 | 16.9 µM (inactive) | 16.1 µM (inactive) | 16 µM (inactive) | 17 µM (inactive) | 17.7 µM (inactive) | 17 µM (inactive) | 16 µM (inactive) | 17.5 µM (inactive) | 16.3 µM (inactive) | 19 µM (inactive) | 16.9 µM (inactive) | 31.5 µM (inactive) | 19.9 µM (inactive) | 17.4 µM (inactive) | 17.8 µM (inactive) | 17.6 µM (inactive) | 17 µM (inactive) | 29.5 µM (inactive) | 17.6 µM (inactive) | 
12 | CN1C2CCC1CC(C)(O)C2 (stereo not drawn) |  | > 100 µM (inactive) | > 100 µM (inactive) | > 100 µM (inactive) | > 100 µM (inactive) |  |  | > 100 µM (inactive) | > 100 µM (inactive) | > 100 µM (inactive) | > 100 µM (inactive) | > 100 µM (inactive) | > 100 µM (inactive) | > 100 µM (inactive) | > 100 µM (inactive) | > 100 µM (inactive) |  | > 100 µM (inactive) |  | > 100 µM (inactive)
13 | CC(C)=CC(=O)OC1C2C(C)=CC(O)C(O)C2(C)C2C3(O)OCC24C(CC(=O)OC14)C(C)C3O (stereo not drawn) |  | 0.183 µM (active) | 0.173 µM (active) | 0.137 µM (active) | 0.104 µM (active) | 0.0298 µM (active) | 0.802 µM (active) | 0.0286 µM (active) | 0.0361 µM (active) | 0.0269 µM (active) | 0.0519 µM (active) | 0.0225 µM (active) |  | 0.778 µM (active) | 0.143 µM (active) | 0.0362 µM (active) | 0.0581 µM (active) | 0.0251 µM (active) | 3.13 µM (inactive) | 0.106 µM (active)
14 | OC1COC2CC(Nc3ccccn3)OC12 (stereo not drawn) | > 100 µM (inactive) | > 100 µM (inactive) | > 100 µM (inactive) | > 100 µM (inactive) | > 100 µM (inactive) | > 100 µM (inactive) | > 100 µM (inactive) | > 100 µM (inactive) | > 100 µM (inactive) |  | > 100 µM (inactive) | > 100 µM (inactive) | > 100 µM (inactive) | > 100 µM (inactive) | > 100 µM (inactive) | > 100 µM (inactive) | > 100 µM (inactive) |  | > 100 µM (inactive) | > 100 µM (inactive)
15 | O=C(O)C(Cc1ccc(O)cn1)NC(=O)C(F)(F)F (stereo not drawn) | > 100 µM (inactive) | > 100 µM (inactive) |  | > 100 µM (inactive) | > 100 µM (inactive) | > 100 µM (inactive) | > 100 µM (inactive) | > 100 µM (inactive) | > 100 µM (inactive) | > 100 µM (inactive) | > 100 µM (inactive) |  | > 100 µM (inactive) | > 100 µM (inactive) | > 100 µM (inactive) | > 100 µM (inactive) | > 100 µM (inactive) | > 100 µM (inactive) |  | > 100 µM (inactive)
